Series [1] deals with human STAT4 mRNA transcript. Briefly: STAT4 specificity screen in human A549 cells, STAT4 mRNA by quantitative RT-PCR. It counts as cell-based. The following applies: three experiments, mean ± standard deviation. On the procedure:
A549 (human; ATCC cat# CCL-185): Cells were cultured at 37° C. in the presence of 5% CO2 and grown in Ham's F12K medium with 2 mM L-glutamine adjusted to contain 1.5 g/L sodium bicarbonate and supplemented with fetal bovine serum at a final concentration of 10%, 100 μg/mL of streptomycin, and 100 U/mL penicillin.
A series of probes and primers were used to detect the various mRNA transcripts of the genes of 13-Actin (human cell line only), and of STATE and GAPDH in mouse and human cell lines. All Taqman probes and primers for the experiments here-in described were supplied as pre-validated sets by Applied Biosystems, Inc. (see Table 2).
The assays were performed on an ABI 7900 instrument, according to the manufacturer's instructions. A TaqMan Gene Expression Master Mix (provided in the Cells-to-CTT™, Applied Biosystems, Cat #4399002) was used. The PCR reactions were carried out at 50° C. for 2 min, 95° C. for 20 min followed by 40 cycles at 95° C. for 15 secs and 60° C. for 1 min.
The expression level of the gene of interest and % knock-down was calculated using Comparative Ct method:
ΔΔCt=ΔCt(Target siNA)−ΔCt(NTC)
Relative expression level=2^−ΔΔCt
The non-targeting control siNA was, unless otherwise indicated, chosen as the value against which to calculate the % knock-down, because it is the most relevant control.
The siNAs from Table 4 were tested in human A549 cell line at a lower concentration (1 nM versus the original screening concentration of 10 nM) to determine the effect of the STATE siRNAs on the mRNA transcript of human STAT4.

In a further series the test system is STAT6 protein. Briefly: STAT6 Western Blot after 6-well plate transfection of A549 cells. The class given is cell-based, human. To be noted: STAT6 protein band density, 72 h post-transfection, average ±S.D., n = 3. On the procedure: A549 cells were plated in 6-well plates at final counts of 70,000 cells/well in 2 ml of complete growth media. Transfection was performed using 2.5 uL of RNAiMax per well. Final concentration of siNAs was 30 nM (screen) and 30, 0.3, and 0.003 nM (dose response study). Protein lysates were harvested 24, 48, and 72 hours post-transfection (screen) and 72 hours post-transfection (dose response study). Protein lysates were prepared using Cell Extraction Buffer (Invitrogen, cat# FNN0011) according to manufacturer's instructions. Protein concentration was measured using a Bradford Quick Start Kit (Bio-Rad, cat#500-0205).
The protein source for the Western Blot experiments were from transfection of A549 cells in a 6 well plate, as described above.
Protein samples were diluted 1:1 in 2× Laemmli buffer with 5% 13-mercapto-ethanol and incubated at 95° C. for 5 minutes. 40-50 ug of protein was loaded in each lane of 10% Tris-HCl gel. One lane was designated for MagicMark Protein Standard (Invitrogen # LC5602). The gel was run at 100V for approximately 2 hours. Protein was transferred to a PVDF membrane at 100V for 60 minutes. Once the transfer was finished, the membrane was blocked in 1% Casein in PBS (BioRad Cat#161-0783) for 1 hour on a plate rocker at room temperature followed by the overnight incubation at 4° C. with mouse monoclonal anti-STAT6 primary antibody (BD Biosciences, cat#611291) diluted 1:500 in 1% Casein. On the next day, the blot was washed 4×5 minutes in PBST solution and incubated for 30 minutes at room temperature with goat anti-mouse secondary antibody (Pierce Biotechnology, cat#3 31430) diluted 1:20,000 in 1% Casein. Then, the blot was washed 4×5 minutes with PBST and incubated for 1 minute with ECL Western Blotting Substrate (Pierce Biotechnology, Cat#32106). The bands were visualized on the Bio-Rad VersaDoc Imager.
The protein bands were quantified by computing their density which is defined by the ratio between the total intensity of all pixels and the area of the rectangle drawn around each band (intensity/mm^2). The density was calculated by the BioRad software.
The level of protein was quantified using the Bio-Rad VersaDoc Imager according to the protocols of that piece of equipment. A pixel count was performed in each lane using an area of identical size. Each sample was then compared to the appropriate control treated sample and converted to a percent of protein remaining compared to control.
The effects of lead siNAs on STATE protein level were compared to the effects of the universal control using a two tail Student's T-test to obtain a P value. P<0.05 was considered significant.
The siNAs and control were tested were tested at doses of 30 nM, […]. Blots were then probed with a-STAT6 and α-tubulin antibodies. All samples were harvested 72 hours post-transfection. The ratios of the treatments were then compared to the ratio of the control group using an t-test assuming unequal variances.
A general note: Immunoblotting shows a protein as a band on a membrane.

[invAb] = inverted abasic unit; m = 2'-O-methyl; r = 2'-OH (RNA); f = 2'-fluoro

With “29990-DC: STAT6 siNA duplex; sense SEQ ID NO: 44, antisense SEQ ID NO: 45; target GUGAAAGCCUGGUGGACAU, site 954 (sense GUGAAAGCCUGGUGGACAUTT; antisense AUGUCCACCAGGCUUUCACUU; sense: DNA at AGT, 2'-fluoro at CU, [invAb] at 5' end, 3' end, backbone not given here; antisense: sugars from the 5' end rrrfffmffmmmfffffmfmm, backbone not given here) [STAT6 siNA duplex; target GUGAAAGCCUGGUGGACAU, site 954]”, in series [1], the “% KD STAT4 1 nM” value was −2.1 ± 25.7%. Moreover, in the series with STAT6 protein, the “Density (Intensity/mm^2), 3 pM, 72 h” value is 50078.4 ± 5978.2 Intensity/mm^2; the “Density (Intensity/mm^2), 300 pM, 72 h” value turned out to be 6192.2 ± 714.5 Intensity/mm^2; the “Density (Intensity/mm^2), 30 nM, 72 h” value came to 1134.6 ± 362.7 Intensity/mm^2.

Consider “29997-DC: STAT6 siNA duplex; sense SEQ ID NO: 58, antisense SEQ ID NO: 59; target CUACCAUGGUGCCUUCUUA, site 2262 (sense CUACCAUGGUGCCUUCUUATT; antisense UAAGAAGGCACCAUGGUAGUU; sense: DNA at AGT, 2'-fluoro at CU, [invAb] at 5' end, 3' end, backbone not given here; antisense: sugars from the 5' end rrrmmmmmfmffmfmmfmmmm, backbone not given here) [STAT6 siNA duplex; target CUACCAUGGUGCCUUCUUA, site 2262]”, for which the “% KD STAT4 1 nM” value in series [1] came to 2.6 ± 25%. In the series on STAT6 protein, the “Density (Intensity/mm^2), 3 pM, 72 h” value is on record as 49839.8 ± 2352.8 Intensity/mm^2; the “Density (Intensity/mm^2), 300 pM, 72 h” value stood at 5732.4 ± 1189.0 Intensity/mm^2; the “Density (Intensity/mm^2), 30 nM, 72 h” value is 3203.8 ± 1309.6 Intensity/mm^2.

Regarding “30008-DC: STAT6 siNA duplex; sense SEQ ID NO: 80, antisense SEQ ID NO: 81; target CUGCUCUGCUCAGAUGUGA, site 2549 (sense CUGCUCUGCUCAGAUGUGATT; antisense UCACAUCUGAGCAGAGCAGUU; sense: DNA at AGT, 2'-fluoro at CU, [invAb] at 5' end, 3' end, backbone not given here; antisense: sugars from the 5' end rrrfmfffmmmfmmmmfmmmm, backbone not given here) [STAT6 siNA duplex; target CUGCUCUGCUCAGAUGUGA, site 2549]”, the “% KD STAT4 1 nM” value in series [1] came to 16.4 ± 17%. Moreover, in the series on STAT6 protein, the “Density (Intensity/mm^2), 3 pM, 72 h” value came to 58808.1 ± 5023.9 Intensity/mm^2; the “Density (Intensity/mm^2), 300 pM, 72 h” value is given as 8356.8 ± 2186.6 Intensity/mm^2; the “Density (Intensity/mm^2), 30 nM, 72 h” value is recorded as 4254 ± 1579.4 Intensity/mm^2.

(Values after patent US20120035247A1, “RNA Interference Mediated Inhibition of Signal Transducer and Activator of Transcription 6 (STAT6) Gene Expression Using Short Interfering Nucleic Acid (siNA)” (Merck Sharp & Dohme Corp., priority 2009, published 2012).)
